# Experimental data reported in ChEMBL document CHEMBL4421734, “Means and methods for treatment of early-onset parkinson''s disease” (2016).
# Activity calls are given as the source filed them. No cut-off for these calls is given here.
# Legend:
# [1] = target: 3-oxoacyl-[acyl-carrier-protein] reductase (Drosophila melanogaster) (UniProt B7Z001); assay: Inhibition of FASN in one day old PINK1 mutant containing Drosophila melanogaster assessed as rescue of defective flight at 0.1 to 300 uM dosed with food incubated for 72 hrs; format: organism-based
# Chain of 3-oxoacyl-[acyl-carrier-protein] reductase (Drosophila melanogaster) (B7Z001 as listed by the source): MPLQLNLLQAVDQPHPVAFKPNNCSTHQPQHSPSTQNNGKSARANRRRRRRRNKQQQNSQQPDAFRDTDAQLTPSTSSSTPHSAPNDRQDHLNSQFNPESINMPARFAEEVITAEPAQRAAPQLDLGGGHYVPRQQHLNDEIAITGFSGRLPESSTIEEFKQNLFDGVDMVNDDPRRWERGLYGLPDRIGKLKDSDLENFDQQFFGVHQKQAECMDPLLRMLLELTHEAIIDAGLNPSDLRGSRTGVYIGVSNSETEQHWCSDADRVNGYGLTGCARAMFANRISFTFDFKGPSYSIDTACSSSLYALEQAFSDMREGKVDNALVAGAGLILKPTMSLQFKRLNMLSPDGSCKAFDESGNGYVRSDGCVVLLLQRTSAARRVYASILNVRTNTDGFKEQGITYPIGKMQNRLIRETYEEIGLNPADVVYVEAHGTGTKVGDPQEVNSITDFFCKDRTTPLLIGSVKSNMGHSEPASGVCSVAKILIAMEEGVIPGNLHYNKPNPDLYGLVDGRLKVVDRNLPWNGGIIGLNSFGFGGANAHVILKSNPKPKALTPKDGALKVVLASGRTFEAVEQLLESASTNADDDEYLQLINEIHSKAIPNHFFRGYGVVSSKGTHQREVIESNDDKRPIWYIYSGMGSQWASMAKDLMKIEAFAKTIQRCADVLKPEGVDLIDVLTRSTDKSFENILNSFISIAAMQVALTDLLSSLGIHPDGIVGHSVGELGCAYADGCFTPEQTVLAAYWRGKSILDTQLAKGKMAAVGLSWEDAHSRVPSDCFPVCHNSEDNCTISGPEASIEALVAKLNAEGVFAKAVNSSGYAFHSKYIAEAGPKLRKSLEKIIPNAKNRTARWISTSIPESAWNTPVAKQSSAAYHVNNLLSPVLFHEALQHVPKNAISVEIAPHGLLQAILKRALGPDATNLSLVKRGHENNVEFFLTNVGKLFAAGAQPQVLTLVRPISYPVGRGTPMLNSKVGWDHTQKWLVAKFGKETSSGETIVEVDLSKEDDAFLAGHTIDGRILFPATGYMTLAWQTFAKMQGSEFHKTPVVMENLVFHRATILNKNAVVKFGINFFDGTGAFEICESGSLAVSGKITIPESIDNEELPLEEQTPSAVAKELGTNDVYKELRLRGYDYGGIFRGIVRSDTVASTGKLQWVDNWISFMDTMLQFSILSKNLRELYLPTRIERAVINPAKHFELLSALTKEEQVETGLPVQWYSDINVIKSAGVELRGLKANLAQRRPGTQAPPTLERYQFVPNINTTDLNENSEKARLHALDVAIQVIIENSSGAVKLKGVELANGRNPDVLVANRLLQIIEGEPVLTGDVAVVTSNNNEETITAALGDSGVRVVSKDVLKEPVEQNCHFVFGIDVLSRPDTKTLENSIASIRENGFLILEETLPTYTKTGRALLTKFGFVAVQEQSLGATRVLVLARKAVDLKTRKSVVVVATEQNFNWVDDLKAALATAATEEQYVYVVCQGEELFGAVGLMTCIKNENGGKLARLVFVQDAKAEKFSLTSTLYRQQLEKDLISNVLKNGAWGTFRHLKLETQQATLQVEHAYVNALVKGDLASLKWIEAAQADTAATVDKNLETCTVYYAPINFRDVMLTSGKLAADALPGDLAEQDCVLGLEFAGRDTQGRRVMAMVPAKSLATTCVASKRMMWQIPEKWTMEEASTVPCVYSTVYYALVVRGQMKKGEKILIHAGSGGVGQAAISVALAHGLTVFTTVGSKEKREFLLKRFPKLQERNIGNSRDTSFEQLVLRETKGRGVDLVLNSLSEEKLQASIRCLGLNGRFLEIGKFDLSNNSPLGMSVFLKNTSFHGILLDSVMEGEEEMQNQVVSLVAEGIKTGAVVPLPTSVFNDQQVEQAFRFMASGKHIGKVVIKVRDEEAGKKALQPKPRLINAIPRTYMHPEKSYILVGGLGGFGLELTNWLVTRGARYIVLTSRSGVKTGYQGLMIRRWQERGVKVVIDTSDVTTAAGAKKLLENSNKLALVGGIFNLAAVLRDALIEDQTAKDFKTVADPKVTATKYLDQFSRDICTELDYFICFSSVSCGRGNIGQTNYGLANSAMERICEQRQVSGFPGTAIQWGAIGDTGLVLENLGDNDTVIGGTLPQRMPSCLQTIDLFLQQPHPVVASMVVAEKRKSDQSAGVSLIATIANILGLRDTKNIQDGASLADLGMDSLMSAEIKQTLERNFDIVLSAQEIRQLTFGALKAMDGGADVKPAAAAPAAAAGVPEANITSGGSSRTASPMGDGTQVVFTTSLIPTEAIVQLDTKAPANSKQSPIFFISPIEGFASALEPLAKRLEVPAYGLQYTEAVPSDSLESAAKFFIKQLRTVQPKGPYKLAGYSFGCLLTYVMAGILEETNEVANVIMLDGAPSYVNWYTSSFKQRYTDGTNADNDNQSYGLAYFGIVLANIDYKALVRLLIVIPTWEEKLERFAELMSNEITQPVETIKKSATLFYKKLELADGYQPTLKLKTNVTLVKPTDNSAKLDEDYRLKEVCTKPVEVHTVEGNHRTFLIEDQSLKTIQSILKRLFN
# [2] = target: 3-oxoacyl-[acyl-carrier-protein] reductase (Drosophila melanogaster) (UniProt B7Z001); assay: Inhibition of FASN in one day old PINK1 mutant containing Drosophila melanogaster assessed as rescue of defective flight at 100 to 300 uM dosed with food incubated for 72 hrs; format: organism-based
# [3] = target: Fatty acid synthase (Mus musculus) (UniProt P19096); assay: Inhibition of FASN in PINK1 (-/-) MEF assessed as rescue of mitochondrial dysfunction by measuring ATP levels by luminometry; format: cell-based
# Chain of Fatty acid synthase (Mus musculus) (P19096 whole entry): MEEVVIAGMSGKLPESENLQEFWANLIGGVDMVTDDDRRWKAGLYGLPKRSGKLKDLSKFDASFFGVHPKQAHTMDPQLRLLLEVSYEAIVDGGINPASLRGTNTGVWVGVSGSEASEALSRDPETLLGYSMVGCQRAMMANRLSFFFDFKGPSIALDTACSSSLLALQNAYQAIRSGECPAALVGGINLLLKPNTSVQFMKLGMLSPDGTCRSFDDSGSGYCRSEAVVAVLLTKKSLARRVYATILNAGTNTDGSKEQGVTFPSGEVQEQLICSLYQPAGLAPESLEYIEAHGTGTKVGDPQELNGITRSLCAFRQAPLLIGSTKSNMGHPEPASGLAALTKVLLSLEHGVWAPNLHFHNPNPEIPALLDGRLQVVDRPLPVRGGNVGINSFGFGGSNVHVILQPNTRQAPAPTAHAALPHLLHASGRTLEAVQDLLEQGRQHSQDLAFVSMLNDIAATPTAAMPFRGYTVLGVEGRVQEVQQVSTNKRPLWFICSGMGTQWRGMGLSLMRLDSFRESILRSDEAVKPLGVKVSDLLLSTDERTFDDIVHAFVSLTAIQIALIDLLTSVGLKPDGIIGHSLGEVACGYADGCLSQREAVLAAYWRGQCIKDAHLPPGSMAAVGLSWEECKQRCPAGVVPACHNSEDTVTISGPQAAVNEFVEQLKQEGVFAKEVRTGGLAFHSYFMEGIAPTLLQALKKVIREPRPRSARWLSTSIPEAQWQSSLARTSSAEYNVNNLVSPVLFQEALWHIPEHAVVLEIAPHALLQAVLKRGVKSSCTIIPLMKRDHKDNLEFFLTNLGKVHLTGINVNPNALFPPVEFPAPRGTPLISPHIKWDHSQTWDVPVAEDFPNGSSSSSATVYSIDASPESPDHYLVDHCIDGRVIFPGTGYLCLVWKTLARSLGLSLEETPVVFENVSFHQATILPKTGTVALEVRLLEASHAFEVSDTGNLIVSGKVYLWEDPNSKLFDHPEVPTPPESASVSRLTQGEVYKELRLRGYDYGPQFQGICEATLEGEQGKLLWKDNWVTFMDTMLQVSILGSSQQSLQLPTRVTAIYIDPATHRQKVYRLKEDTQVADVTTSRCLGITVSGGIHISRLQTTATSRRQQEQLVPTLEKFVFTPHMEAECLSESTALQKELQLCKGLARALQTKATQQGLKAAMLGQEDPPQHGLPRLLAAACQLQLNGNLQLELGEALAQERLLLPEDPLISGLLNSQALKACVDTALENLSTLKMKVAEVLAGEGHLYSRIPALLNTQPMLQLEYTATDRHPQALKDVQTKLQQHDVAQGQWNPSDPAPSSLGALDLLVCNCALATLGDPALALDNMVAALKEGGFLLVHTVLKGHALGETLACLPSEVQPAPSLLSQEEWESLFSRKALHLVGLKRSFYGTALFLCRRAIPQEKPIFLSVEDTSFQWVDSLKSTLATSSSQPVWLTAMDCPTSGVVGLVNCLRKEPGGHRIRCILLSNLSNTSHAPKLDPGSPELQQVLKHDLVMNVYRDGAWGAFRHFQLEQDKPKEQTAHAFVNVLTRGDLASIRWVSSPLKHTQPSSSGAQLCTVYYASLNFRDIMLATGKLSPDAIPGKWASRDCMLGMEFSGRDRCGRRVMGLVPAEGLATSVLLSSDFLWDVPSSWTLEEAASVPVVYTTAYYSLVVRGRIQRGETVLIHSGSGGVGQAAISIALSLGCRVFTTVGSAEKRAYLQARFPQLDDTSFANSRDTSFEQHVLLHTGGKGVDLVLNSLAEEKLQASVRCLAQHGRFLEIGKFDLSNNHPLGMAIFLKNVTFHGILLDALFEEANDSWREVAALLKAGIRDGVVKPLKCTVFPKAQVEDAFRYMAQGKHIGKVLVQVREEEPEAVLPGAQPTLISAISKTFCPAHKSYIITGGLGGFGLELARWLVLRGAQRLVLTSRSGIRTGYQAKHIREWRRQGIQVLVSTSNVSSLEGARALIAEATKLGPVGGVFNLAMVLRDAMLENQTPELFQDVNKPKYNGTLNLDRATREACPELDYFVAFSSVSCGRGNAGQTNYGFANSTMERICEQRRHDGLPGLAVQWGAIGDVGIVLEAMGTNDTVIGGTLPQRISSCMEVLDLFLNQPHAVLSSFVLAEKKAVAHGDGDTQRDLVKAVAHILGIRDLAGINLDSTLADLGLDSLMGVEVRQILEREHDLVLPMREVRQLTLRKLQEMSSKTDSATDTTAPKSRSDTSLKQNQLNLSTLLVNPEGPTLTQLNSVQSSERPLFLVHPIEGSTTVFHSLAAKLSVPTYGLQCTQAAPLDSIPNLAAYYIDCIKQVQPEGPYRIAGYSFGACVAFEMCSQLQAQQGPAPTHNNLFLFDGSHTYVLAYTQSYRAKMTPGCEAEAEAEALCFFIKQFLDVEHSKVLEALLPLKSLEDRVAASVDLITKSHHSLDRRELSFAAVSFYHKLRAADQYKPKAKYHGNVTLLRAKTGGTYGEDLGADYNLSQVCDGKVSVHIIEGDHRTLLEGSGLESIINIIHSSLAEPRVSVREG
SMILES,inhibition [1],inhibition [2],inhibition [3]
Oc1cc(Cl)ccc1Oc1ccc(Cl)cc1Cl,Dose-dependent effect,,
C/C=C/C/C=C/CCC(=O)[C@H]1O[C@H]1C(N)=O,,Dose-dependent effect,Active
